# Target: T1, human kinase Mps-1 (Homo sapiens, UniProt P33981)
# T1 construct: N-terminally GST-tagged human full length recombinant Mps-1 kinase; GST (N); purchased Invitrogen, Karslruhe, Germany PV4071
# T1 sequence (P33981 1-857): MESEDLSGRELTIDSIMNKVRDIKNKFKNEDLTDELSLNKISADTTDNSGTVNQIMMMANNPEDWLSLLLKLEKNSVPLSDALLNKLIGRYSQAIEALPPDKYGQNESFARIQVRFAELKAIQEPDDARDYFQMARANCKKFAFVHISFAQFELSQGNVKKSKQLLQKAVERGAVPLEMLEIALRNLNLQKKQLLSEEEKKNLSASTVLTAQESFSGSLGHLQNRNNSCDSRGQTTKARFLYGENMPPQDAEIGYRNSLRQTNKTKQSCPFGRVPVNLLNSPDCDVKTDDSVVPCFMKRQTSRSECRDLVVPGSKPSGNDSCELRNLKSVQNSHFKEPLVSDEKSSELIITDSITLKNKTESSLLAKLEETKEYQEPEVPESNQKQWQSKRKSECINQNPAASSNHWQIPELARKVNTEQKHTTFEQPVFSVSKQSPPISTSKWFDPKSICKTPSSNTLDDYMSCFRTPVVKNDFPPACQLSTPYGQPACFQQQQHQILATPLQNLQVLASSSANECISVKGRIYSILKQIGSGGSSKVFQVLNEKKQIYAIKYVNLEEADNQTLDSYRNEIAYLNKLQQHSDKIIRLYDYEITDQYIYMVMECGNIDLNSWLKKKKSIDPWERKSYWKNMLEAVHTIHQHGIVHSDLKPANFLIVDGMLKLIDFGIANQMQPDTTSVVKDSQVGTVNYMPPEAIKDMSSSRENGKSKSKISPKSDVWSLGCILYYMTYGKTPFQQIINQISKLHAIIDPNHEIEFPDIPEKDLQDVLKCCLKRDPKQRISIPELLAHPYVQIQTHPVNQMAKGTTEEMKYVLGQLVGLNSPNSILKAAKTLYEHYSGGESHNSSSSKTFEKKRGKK
# Assay: Mps-1 kinase assay (TR-FRET)
# Type: biochemical
# Conditions: N-terminally GST-tagged human full length recombinant Mps-1; 10 μM ATP; 1 μM peptide substrate; 60 min at 22° C.
# Procedure: The human kinase Mps-1 phosphorylates a biotinylated substrate peptide. Detection of the phosphorylated product is achieved by time-resolved fluorescence resonance energy transfer (TR-FRET) from Europium-labelled anti-phospho-Serine/Threonine antibody as donor to streptavidin labelled with cross-linked allophycocyanin (SA-XLent) as acceptor. Compounds are tested for their inhibition of the kinase activity.
# N-terminally GST-tagged human full length recombinant Mps-1 kinase (purchased from Invitrogen, Karslruhe, Germany, cat. no PV4071) was used. As substrate for the kinase reaction a biotinylated peptide of the amino-acid sequence […] (C-terminus in amide form, purchased from Biosynthan GmbH, Berlin) was used.
# The concentration of Mps-1 in the assay was adjusted to the activity of the enzyme lot and was chosen appropriate to have the assay in the linear range, typical enzyme concentrations were in the range of about 1 nM (final conc. in the 5 μl assay volume).
# The resulting mixture was incubated 1 h at 22° C. to allow the binding of the phosphorylated peptide to the anti-phospho(Ser/Thr)-Europium-antibody. Subsequently the amount of phosphorylated substrate was evaluated by measurement of the resonance energy transfer from the Europium-labelled anti-phospho(Ser/Thr) antibody to the Streptavidin-XLent.
row,Compound,IC50
1,"Cc1cc(-c2cnc3c(NCCC(F)(F)F)cc(Oc4ccc(O)c(F)c4)cn23)ccc1C(=O)NC1CC1 [Example 129, N-cyclopropyl-4-{6-(3-fluoro-4-hydroxyphenoxy)-8-[(3,3,3-trifluoropropyl)amino]imidazo[1,2-a]pyridin-3-yl}-2-methylbenzamide]",0.5 nM
2,"Cc1cc(-c2cnc3c(NCCC(F)(F)F)cc(CCCO)cn23)ccc1C(=O)NC1CC1 [Example 128, N-cyclopropyl-4-{6-(3-hydroxypropyl)-8-[(3,3,3-trifluoropropyl)amino]imidazo[1,2-a]pyridin-3-yl}-2-methylbenzamide]",9.5 nM
3,"C/C=C/c1cc(NCCC(F)(F)F)c2ncc(-c3ccc(C(=O)NCC)c(C)c3)n2c1 [Example 113, N-ethyl-2-methyl-4-{6-[(1E)-prop-1-en-1-yl]-8-[(3,3,3-trifluoropropyl)amino]imidazo[1,2-a]pyridin-3-yl}benzamide]",45.1 nM
4,"C=Cc1cc(NCCC(F)(F)F)c2ncc(-c3ccc(C(=O)N[C@H]4C[C@@H]4C)c(C)c3)n2c1 (relative stereo) [Example 98, 2-Methyl-N-[rel-(1S,2S)-2-methylcyclopropyl]-4-{8-[(3,3,3-trifluoropropyl)amino]-6-vinylimidazo[1,2-a]pyridin-3-yl}benzamide]",29.4 nM
5,"CCNC(=O)c1ccc(-c2cnc3c(NCCC(F)(F)F)cc(Oc4cccc(OC)c4)cn23)cc1C [Example 56, N-ethyl-4-{6-(3-methoxyphenoxy)-8-[(3,3,3-trifluoropropyl)amino]imidazo[1,2-a]pyridin-3-yl}-2-methylbenzamide]",7.8 nM
6,"Cc1cc(-c2cnc3c(NCCC(F)(F)F)cc(Oc4ccc(OC(F)(F)F)c(F)c4)cn23)ccc1C(=O)NC1(C)CC1 [Example 85, 4-{6-[3-F luoro-4-(trifluoromethoxy)phenoxy]-8-[(3,3,3-trifluoropropyl)amino]imidazo[1,2-a]pyridin-3-yl}-2-methyl-N-(1-methylcyclopropyl)benzamide]",199 nM
7,"C=Cc1cc(NCCC(F)(F)F)c2ncc(-c3ccc(C(=O)NC4(C#N)CC4)c(C)c3)n2c1 [Example 96, N-(1-cyanocyclopropyl)-2-methyl-4-{8-[(3,3,3-trifluoropropyl)amino]-6-vinylimidazo[1,2-a]pyridin-3-yl}benzamide]",123 nM
8,"C/C=C/c1cc(NCCC(F)(F)F)c2ncc(-c3ccc(C(=O)N[C@H]4C[C@@H]4C)c(C)c3)n2c1 (relative stereo) [Example 117, 2-Methyl-N-[rel-(1S,2S)-2-methylcyclopropyl]-4-{6-[(1E)-prop-1-en-1-yl]-8-[(3,3,3-trifluoropropyl)amino]imidazo[1,2-a]pyridin-3-yl}benzamide]",9.4 nM
9,"COc1cccc(Oc2cc(NCCC(F)(F)F)c3ncc(-c4ccc(C(=O)NC5CC5)c(C)c4)n3c2)c1 [Example 52, N-cyclopropyl-4-{6-(3-methoxyphenoxy)-8-[(3,3,3-trifluoropropyl)amino]imidazo[1,2-a]pyridin-3-yl}-2-methylbenzamide]",0.9 nM
10,"COc1ccc(Oc2cc(NCC(F)F)c3ncc(-c4ccc(C(=O)NC5CC5)c(C)c4)n3c2)cc1 [Example 162, N-cyclopropyl-4-{8-[(2,2-difluoroethyl)amino]-6-(4-methoxyphenoxy)imidazo[1,2-a]pyridin-3-yl}-2-methylbenzamide]",8.6 nM
11,"Cc1cc(-c2cnc3c(NCCC(F)(F)F)cc(Oc4cccc(F)c4)cn23)ccc1C(=O)NC1CCC1 [Example 24, N-cyclobutyl-4-{6-(3-fluorophenoxy)-8-[(3,3,3-trifluoropropyl)amino]imidazo[1,2-a]pyridin-3-yl}-2-methylbenzamide]",11.1 nM
12,"CCNC(=O)c1ccc(-c2cnc3c(NCCC(F)(F)F)cc(CCCO)cn23)cc1C [Example 127, N-ethyl-4-{6-(3-hydroxypropyl)-8-[(3,3,3-trifluoropropyl)amino]imidazo[1,2-a]pyridin-3-yl}-2-methylbenzamide]",62.5 nM
13,"Cc1ccc(F)cc1Oc1cc(NCCC(F)(F)F)c2ncc(-c3ccc(C(=O)NC4(C#N)CCC4)c(C)c3)n2c1 [Example 63, N-(1-cyanocyclobutyl)-4-{6-(5-fluoro-2-methylphenoxy)-8-[(3,3,3-trifluoropropyl)amino]imidazor-1,2-aliwridin-3-yl}-2-methylbenzamide]",59.7 nM
14,"Cc1cc(-c2cnc3c(NCCC(F)(F)F)cc(Oc4cccc(Cl)c4)cn23)ccc1C(=O)NC1(C)CC1 [Example 36, 4-{6-(3-chlorophenoxy)-8-[(3,3,3-trifluoropropyl)amino]imidazo[1,2-a]pyridin-3-yl}-2-methyl-N-(1-methylcyclopropyl)benzamide]",11.1 nM
15,"C/C=C/c1cc(NCCC(F)(F)F)c2ncc(-c3ccc(C(=O)NC)c(C)c3)n2c1 [Example 112, N,2-dimethyl-4-{6-[(1E)-prop-1-en-1-yl]-8-[(3,3,3-trifluoropropyl)amino]imidazo[1,2-a]pyridin-3-yl}benzamide]",21.8 nM
16,"C#Cc1cc(NCCC(F)(F)F)c2ncc(-c3ccc(C(=O)NC4(C#N)CC4)c(C)c3)n2c1 [Example 18, N-(1-cyanocyclopropyl)-4-{6-ethynyl-8-[(3,3,3-trifluoropropyl)amino]imidazo[1,2-a]pyridin-3-yl}-2-methylbenzamide]",65.5 nM
17,"Cc1ccc(F)cc1Oc1cc(NCCC(F)(F)F)c2ncc(-c3ccc(C(=O)NC4(C)CC4)c(C)c3)n2c1 [Example 27, 4-{6-(5-Fluoro-2-methylphenoxy)-8-[(3,3,3-trifluoropropyl)amino]imidazo[1,2-a]pyridin-3-yl}-2-methyl-N-(1-methylcyclopropyl)benzamide]",4.2 nM
18,"Cc1cc(-c2cnc3c(NCCC(F)(F)F)cc(CCO)cn23)ccc1C(=O)NC1CC1 [Example 141, N-cyclopropyl-4-{6-(2-hydroxyethyl)-8-[(3,3,3-trifluoropropyl)amino]imidazo[1,2-a]pyridin-3-yl}-2-methylbenzamide]",26.2 nM
19,COCCNc1cc(Oc2ccccc2C)cn2c(-c3ccc(C(=O)NC4CC4)c(C)c3)cnc12 [Example 170],176 nM
20,"CNC(=O)c1ccc(-c2cnc3c(NCCC(F)(F)F)cc(Oc4cccc(F)c4F)cn23)cc1C [Example 72, 4-{6-(2,3-Difluorophenoxy)-8-[(3,3,3-trifluoropropyl)amino]imidazo[1,2-a]pyridin-3-yl}-N,2-dimethylbenzamide]",0.6 nM
21,"COCCNc1cc(Oc2cccc(F)c2)cn2c(-c3ccc(C(=O)NC4CC4)c(C)c3)cnc12 [Example 169, N-cyclopropyl-4-{6-(3-fluorophenoxy)-8-[(2-methoxyethyl)amino]imidazo[1,2-a]pyridin-3-yl}-2-methylbenzamide]",21.7 nM
22,"CCNC(=O)c1ccc(-c2cc(NCCC(F)(F)F)c3ncc(-c4ccc(C(=O)NC5CC5)c(C)c4)n3c2)cc1C [Example 148, 4-{3-[4-(cyclopropylcarbamoyl)-3-methylphenyl]-8-[(3,3,3-trifluoropropyl)amino]imidazo[1,2-a]pyridin-6-yl}-N-ethyl-2-methylbenzamide]",1 nM
23,"Cc1cc(-c2cnc3c(NCCC(F)(F)F)cc(Oc4cccc(F)c4)cn23)ccc1C(=O)NC1(C2CC2)CC1 [Example 49, N-[1,1′-bi(cyclopropyl)-1-0]-4-{6-(3-fluorophenoxy)-8-[(3,3,3-trifluoropropyl)amino]imidazo[1,2-a]pyridin-3-yl}-2-methylbenzamide]",97.6 nM
24,"Cc1ccc(F)cc1Oc1cc(NCCC(F)(F)F)c2ncc(-c3ccc(C(=O)N[C@H]4C[C@@H]4F)c(C)c3)n2c1 (relative stereo) [Example 29, N-[rel-(1S,2S)-2-fluorocyclopropyl]-4-{6-(5-fluoro-2-methylphenoxy)-8-[(3,3,3-trifluoropropyl)amino]imidazo[1,2-a]pyridin-3-yl}-2-methylbenzamide]",1.3 nM
25,"C#Cc1cc(NCCC(F)(F)F)c2ncc(-c3ccc(C(=O)NCC)c(C)c3)n2c1 [Example 15, N-ethyl-4-{6-ethynyl-8-[(3,3,3-trifluoropropyl)amino]imidazo[1,2-a]pyridin-3-yl}-2-methylbenzamide]",55 nM
